The values below come from PubChem BioAssay AID1648 (Sanford-Burnham Center for Chemical Genomics, 2009).

Active and inactive are the calls of the source. The rule behind the calls is not given here. A value given as a limit tells only on which side of the number the result lay.

The target of this test is Serine/threonine-protein kinase mTOR (Homo sapiens) (UniProt P42345). In words: binders of mTOR FRB domain, biophysical, NMR (AID 1648). Conditions: NMR binding to FRB domain, chemical shift.
Sequence of Serine/threonine-protein kinase mTOR (Homo sapiens) (P42345 2015-2114): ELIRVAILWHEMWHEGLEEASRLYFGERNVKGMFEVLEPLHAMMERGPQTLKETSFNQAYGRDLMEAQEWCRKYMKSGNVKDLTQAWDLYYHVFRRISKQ
With `c1cc(CNc2ccc3c(c2)OCCO3)ccn1`, the Kd was > 4 mM (inactive).
To `CC(C)CCCC(C)[C@H]1CCC2C3CC=C4C[C@@H](O)CC[C@]4(C)C3CC[C@@]21C` (some centres not stated) belongs > 4 mM (inactive); to `CSc1nc(NC(C)(C)C)nc(N2CCOCC2)n1`, > 4 mM (inactive).
The result for `CN1C(=O)/C(=C/c2ccccc2O)NC1=S` reads > 4 mM (inactive).
Take `Cc1cc(NC(=O)c2cc(C)on2)no1`: the Kd was > 4 mM (inactive).
The result for `COC(=O)c1ccccc1C` reads > 4 mM (inactive); that for `O=C1c2ccncc2C(=O)N1CO`, > 4 mM (inactive); that for `C=C(C)CSc1nc2nc(C)cc(C)n2n1`, > 4 mM (inactive).
To `CCOC(=O)C(C)c1n[nH]c(=O)c2ccccc12` (configuration not stated) belongs > 4 mM (inactive); to `OC/C=C/c1ccc(O)c(O)c1`, > 4 mM (inactive); to `COC(=O)C(O)[C@@H]1C2(C)C(=O)[C@@H](CC3=C4CC(=O)O[C@@H](c5ccoc5)[C@]4(C)CCC32)[C@H](OC(C)=O)C1(C)C` (some centres not stated), > 4 mM (inactive).
Turning to `Cc1onc(-c2ccccc2)c1C(=O)Nc1ccncc1`, the Kd is > 4 mM (inactive).
To `CCOC(=O)c1[nH]cnc1C(=O)OC(C)C` belongs > 4 mM (inactive); to `O=C(NCc1cccs1)c1ccc2c(c1)OCCO2`, > 4 mM (inactive).
The result for `O=C1C2CC=CCC2C(=O)N1c1cccc(O)c1` (configuration not stated) reads > 4 mM (inactive); that for `CN(C)C(=O)Nc1ccc(F)cc1F`, > 4 mM (inactive).
`Cc1ccc(S(=O)(=O)CC(N)=O)cc1`: the Kd is > 4 mM (inactive).
The result for `Cc1ccc(C(=O)Nn2cnnc2)c(Cl)c1` reads > 4 mM (inactive).
For the molecule `CN(C)CCCN1CNC(=S)NC1`, the Kd was > 4 mM (inactive).
The result for `O=C(O)c1cccc(N2C(=O)C3CC=CCC3C2=O)c1` (configuration not stated) reads > 4 mM (inactive); that for `Cc1cccc(-n2c(N)cc(=O)[nH]c2=S)c1`, > 4 mM (inactive).
With `Cc1csc(SCC(=O)N2CCCC2)n1`, the Kd was > 4 mM (inactive).
The result for `C=C[C@@](C)(O)CCC1C(=C)CCC2[C@@](C)(CO)CCC[C@]12C` (some centres not stated) reads > 4 mM (inactive).
The result for `CC(=O)c1cccc(NC(=O)C=C(C)C)c1` reads > 4 mM (inactive); that for `Fc1cccc(Cl)c1CN1CCCNCC1`, > 4 mM (inactive).
Turning to `O=C(O[C@@H]1Cc2c(O)cc(O)cc2O[C@@H]1c1ccc(O)c(O)c1)c1cc(O)c(O)c(O)c1`, the Kd is > 4 mM (inactive).
Regarding `CCOC(=O)N1CCCC1c1cccnc1` (configuration not stated), the Kd is > 4 mM (inactive).
On to `CSc1nc2cc(F)c(F)cc2n1C`, for which the Kd was > 4 mM (inactive).
To `S=C(c1ccc(N2CCOCC2)cc1)N1CCOCC1` belongs > 4 mM (inactive); to `CC(=O)Oc1cc(OC(C)=O)c2c(c1)O[C@H](c1ccc(OC(C)=O)c(OC(C)=O)c1)[C@H](OC(C)=O)C2`, > 4 mM (inactive).
Regarding `c1ccc(SCc2nc(-c3cccnc3)no2)cc1`, the Kd is > 4 mM (inactive).
As to `O=C(O)C1(O)C[C@@H](O)C(O)[C@H](O)C1` (some centres not stated), the Kd is > 4 mM (inactive).
Take `O=[N+]([O-])c1cccc2c1nnn2C(CO)OCCO` (configuration not stated): the Kd is > 4 mM (inactive).
To `OCc1c[nH]c2ccccc12` belongs > 4 mM (inactive).
To `COc1cc2c(cc1OC)-c1cc3ccc(OC)c(OC)c3c[n+]1CC2` belongs > 4 mM (inactive); to `CSc1ccccc1NC(=O)c1ccc(C)o1`, > 4 mM (inactive); to `COc1cccc(-c2csc(NC(C)=O)n2)c1`, > 4 mM (inactive).
The result for `Cc1ccnc(NS(=O)(=O)c2cccs2)c1` reads > 4 mM (inactive); that for `NC(=O)CC1NC(=O)c2ccccc21` (configuration not stated), > 4 mM (inactive).
For the molecule `Cn1ncc(CO)c1-c1ccccc1`, the Kd is > 4 mM (inactive).
Take `Nc1ccc2[nH]ccc2c1`: the Kd is > 4 mM (inactive).
To `O=C(NC1CC1)c1ccccc1[N+](=O)[O-]` belongs > 4 mM (inactive); to `COc1cccc(C(=O)N2CCOCC2)c1`, > 4 mM (inactive); to `Cc1cc(C(=O)Nc2ccc3c(c2)OCCO3)c(C)o1`, > 4 mM (inactive).
Regarding `Cn1c(NCc2ccccc2O)nc2ccccc21`, the Kd is > 4 mM (inactive).
To `CC(CO)NC(=O)C1C=C2c3cccc4[nH]cc(c34)C[C@H]2N(C)C1` (some centres not stated) belongs > 4 mM (inactive); to `O=C(Nc1ccc2c(c1)OCO2)c1cccs1`, > 4 mM (inactive).
The result for `COc1ccc(-c2coc3cc(OC(C)=O)cc(OC(C)=O)c3c2=O)cc1` reads > 4 mM (inactive); that for `Cc1occc1C(=O)Nc1nnc(C2CCCCC2)s1`, > 4 mM (inactive).
To `O=C(NC(=O)N1CCOCC1)c1ccccc1` belongs > 4 mM (inactive); to `Oc1ccc(C(=S)N2CCOCC2)cc1`, > 4 mM (inactive).
For `Nc1nc2ccc(C(=O)O)cc2s1`, the Kd was > 4 mM (inactive).
`FC(F)(F)c1cc(-c2ccco2)nc(N2CCOCC2)n1`: the Kd was > 4 mM (inactive).
Consider `Cn1nc(-c2ccccc2)cc1N`, for which the Kd was > 4 mM (inactive).
The result for `CC(C)/C(O)=C1/C(=O)O[C@@H](c2ccoc2)[C@]2(C)C(O)[C@@H](O)[C@@]34OC5(C)OC67CC(C)(C(O)[C@]6(O)[C@@H](O)[C@]3(O5)C12)[C@H](CC(=O)O)[C@]74C` (some centres not stated) reads > 4 mM (inactive); that for `COC(=O)[C@@H]1OC(=O)C2OC23[C@@]1(C)CCC1[C@@]2(C)CCC(=O)C(C)(C)C2C[C@@H](OC(C)=O)[C@]13C` (some centres not stated), > 4 mM (inactive); that for `O=C(CC1NCCNC1=O)Nc1ccccc1` (configuration not stated), > 4 mM (inactive).
As for `Cc1noc(C)c1C(=O)NCc1ccco1`, the Kd was > 4 mM (inactive).
To `OCCOc1ccc(C2=NCCO2)cc1` belongs > 4 mM (inactive); to `Cc1ccc(/C=C2/NC(=S)NC2=O)s1`, > 4 mM (inactive).
The result for `OCc1nc2ccccc2s1` reads > 4 mM (inactive); that for `CC(C)c1c(O)ccc2c1CCC1[C@@](C)(C=O)CCC[C@]21C` (some centres not stated), > 4 mM (inactive); that for `Nc1ccc(NS(=O)(=O)c2ccc(N)cc2)cc1`, > 4 mM (inactive).
Turning to `CC(=O)Nc1ccc(Nc2nnc(C)c(=O)[nH]2)cc1`, the Kd was > 4 mM (inactive).
The result for `Cc1nn(C)c2sc(C(=O)O)cc12` reads > 4 mM (inactive); that for `CN(C)S(=O)(=O)c1ccc(C(=O)NN)cc1`, > 4 mM (inactive); that for `O=C(Nc1ccc2c(c1)OCO2)c1cccc(F)c1`, > 4 mM (inactive).
Regarding `Nc1cccnc1N1CCOCC1`, the Kd is > 4 mM (inactive).
As for `O=C(Nn1cnnc1)c1cccc(C(F)(F)F)c1`, the Kd is > 4 mM (inactive).
As for `N[C@@H](Cc1cc(I)c(Oc2cc(I)c(O)c(I)c2)c(I)c1)C(=O)O`, the Kd is > 4 mM (inactive).
To `COc1ccc(-c2oc3cc(O[C@H]4O[C@H](CO)[C@@H](O)[C@H](O)[C@H]4O)c(OC)c(O)c3c(=O)c2OC)cc1O` belongs > 4 mM (inactive); to `Cc1occc1C(=O)Nc1nccs1`, > 4 mM (inactive).

Usually Kd stands for a measure of binding affinity in units of concentration.
